Key:
human adipose stem cells [1] = test: Culturing of adipose stem cells in medium containing glycerol, cell counting; assay type: cell-based
Protocol: Through experiments to elucidate the mechanism of improved growth ability observed in coculturing with adipocytes, The present inventors have confirmed that the fat metabolite glycerol is one of the important factors and found out that the growth ability and differentiation efficiency can be enhanced only with glycerol, without adipocytes. […] […] […] In addition, the degree of DNA polymerization was evaluated by BrdU assay in order to further investigate the ability of cell growth and differentiation.

human adipose stem cells [2] = test: Growth ability (BrdU assay); assay type: cell-based; conditions: FIG. 6b
Protocol: 1. Growth Ability (BrdU Assay) DNA polymerization occurring during cell growth was quantitated using BrdU. The same number of isolated human adipose stem cells (2×10^4 cells each) were cultured in a culture dish in α-MEM containing 10-100 μM glycerol and 10% FBS. […] In addition, the degree of DNA polymerization was evaluated by BrdU assay in order to further investigate the ability of cell growth and differentiation.

AKT = test: Analysis of activation mechanism: degree of AKT activation (pAKT/tAKT); assay type: cell-based, human; conditions: FIG. 7; decreased again by inhibition of aquaporins (AQ1 and AQ9)
Protocol: Then, protein was extracted from the cells of each group and the degree of AKT activation, which is a measure of cell activity, was measured. […] The degree of AKT activation is evaluated from the ratio of phosphorylated AKT (pAKT) to total AKT (tAKT). The total AKT was normalized with β-actin which is normally expressed in cells.

[3] = tested on: human adipose stem cells cocultured with HUVECs; test: Matrigel tube formation assay after coculturing with HUVECs; assay type: cell-based; conditions: FIG. 8; adipose stem cells exposed to glycerol vs not exposed
Protocol: 3. Tube Formation Assay Vascular tube formation ability was observed after coculturing the cells with human umbilical vein endothelial cells (HUVECs). Differentiation potency was evaluated by Matrigel tube formation assay, which is widely used to compare formation of capillary-like structures in vitro, after coculturing human adipose stem cells with HUVECs.

## OCC(O)CO [glycerol]
Human adipose stem cells [1]; FIG. 6, cell number, BrdU, morphology
  most effective glycerol concentration: 10 µM
Human adipose stem cells [1]; FIG. 6a, adipose stem cells cultured in medium containing glycerol, by glycerol concentration
  cell number: increased in a glycerol concentration-dependent manner
Human adipose stem cells [1]; G10 (10 μM glycerol), α-MEM with 10% FBS, 2×10^4 cells seeded, FIG. 6a
  cell number versus control groups: showed a cell number larger than those of the negative control group “control” and the positive control group “bFGF (4 ng/mL)”
Human adipose stem cells [1]; glycerol concentration 500 μM
  cytotoxicity: cytotoxicity was observed
Human adipose stem cells [2]; with glycerol concentration
  BrdU incorporation owing to cell division: increased BrdU incorporation
Human adipose stem cells [2]; group G1
  DNA synthesis (BrdU assay): showed active DNA synthesis
Human adipose stem cells [2]; group G10 (10 μM glycerol)
  DNA synthesis (BrdU assay): showed active DNA synthesis
AKT
  AKT activity: increased AKT activity
[3]
  vascular tube formation ability: increased vascular structures and densities

Reference: patent publication US8697441B2, “Method of inducing high activity of human adipose stem cell and medium therefor” (Seoul National University Hospital, priority 2009, dated 2014)
